Results: patent US10603320B2, “Compounds useful for inhibiting ROR-gamma-t” (Eli Lilly and Company, priority 2017, dated 2020)

Key:
[1] = biological target: human RAR-related orphan receptor alpha (hRORa) (Homo sapiens (Human), UniProt P35398); test: RORa receptor-ligand competition binding assay; conditions: His-tagged hRORa, [3H]-25-hydroxycholesterol; mean ± standard deviation
[2] = biological target: human RAR-related orphan receptor gamma (hRORg) (Homo sapiens (Human), UniProt P51449); test: RORg receptor-ligand competition binding assay; conditions: His-tagged hRORg, [3H]-25-hydroxycholesterol; mean ± standard deviation
Sequence of human RAR-related orphan receptor gamma (hRORg) (P51449 whole entry): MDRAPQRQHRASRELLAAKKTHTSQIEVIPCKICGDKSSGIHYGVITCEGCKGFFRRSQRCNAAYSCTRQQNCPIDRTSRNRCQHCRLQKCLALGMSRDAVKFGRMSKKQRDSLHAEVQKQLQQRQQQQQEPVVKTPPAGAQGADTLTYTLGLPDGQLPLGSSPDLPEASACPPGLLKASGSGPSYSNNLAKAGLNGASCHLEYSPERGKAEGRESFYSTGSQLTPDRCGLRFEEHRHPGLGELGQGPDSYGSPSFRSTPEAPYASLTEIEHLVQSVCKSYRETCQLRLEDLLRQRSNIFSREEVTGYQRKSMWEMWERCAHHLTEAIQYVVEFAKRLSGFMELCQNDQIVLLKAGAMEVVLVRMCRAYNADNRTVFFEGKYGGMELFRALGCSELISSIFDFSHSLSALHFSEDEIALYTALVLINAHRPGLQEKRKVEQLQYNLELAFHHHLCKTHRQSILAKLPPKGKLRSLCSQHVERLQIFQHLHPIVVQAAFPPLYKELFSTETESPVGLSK

IL-17 secretion in PBMC = test: PBMC IL-17 Secretion ELISA; type: cell-based; conditions: Homo sapiens; anti-CD3/anti-CD28/IL-23 stimulated PBMC, 48 hours; mean ± standard deviation; read-out: hPBMC IL-17 ELISA (EC50)
Procedure: (§1) PBMC's are isolated from whole blood buffy coats by first combining fresh buffy coats with equal volumes of phosphate buffered saline. Thirty five mL of PBS/buffy coat solution are then gently overlaid onto 15 mL of Ficoll in 50 mL conical tubes. Following centrifugation for 30 minutes at 500×g (with slow acceleration and deceleration) the top layer of plasma is discarded and the layer of cells along the Ficoll interface is collected and pooled. Each 250 mL tube is filled to the top with room temperature RPMI-1640 media. Tubes are spun for 10 minutes at 500×G (with slow acceleration and deceleration), the media is removed by aspiration, and the wash step is repeated. Cells are resuspended in ice cold Recovery Cell Culture Freezing Medium from Life Technologies (Catalog number 12648-010) on ice. The cell concentration is adjusted to 66.7 million cells/mL. Cell are slow frozen at −1° C./minute in vials with 100 million cells and stored in liquid nitrogen.
PBMC are brought out of thaw by resuspending with 1 mL of complete media (RPMI-1640 containing 30 mM HEPES, 100 units/mL penicillin, 100 μg/mL streptomycin, 3.25 mM L-Glutamine, 0.2 μM beta-mercaptoethanol, and 10% FBS) followed by the drop wise addition of 2 mL, 4 mL, 8 mL, and 16 mL of complete media with gentle swirling. Cells are spun down for 5 minutes and the cell pellet is resuspended in complete media. Clumps of cells are broken up by running the cell solution through a 23 gauge syringe needle and a […] cell strainer. One hundred thousand cells per well are added to 384 well polystyrene tissue culture treated flat bottomed plates in a total of 30 μL. […]
Following the incubation period the plates are spun at 200×g for five minutes. […] Absorbance at 492 nm is measured with the Envision multi-label plate reader. […] IC50's for inhibition of IL-17 secretion is calculated based on converted values using a standard 4-parameter fit with maximum inhibition determined from the average values of wells with no added stimulants nor compounds and minimum inhibition from the average values of wells with stimulants alone and no added compound.

PBMC = test: cells; type: cell-based; conditions: Homo sapiens, 48 h, read-out: Cell TiterGlo Viability (EC50)
Procedure: as §1, with “[…].” for “The cell concentration is adjusted to 66.7 million cells/mL. Cell are slow frozen at −1° C./minute in vials with 100 million cells and stored in liquid nitrogen.”
PBMC are brought out of thaw by resuspending with 1 mL of complete media (RPMI-1640 containing 30 mM HEPES, 100 units/mL penicillin, 100 μg/mL streptomycin, 3.25 mM L-Glutamine, 0.2 μM beta-mercaptoethanol, and 10% FBS) followed by the drop wise addition of 2 mL, 4 mL, 8 mL, and 16 mL of complete media with gentle swirling. Cells are spun down for 5 minutes and the cell pellet is resuspended in complete media. Clumps of cells are broken up by running the cell solution through a 23 gauge syringe needle and a 40 μM cell strainer. […].
Equal volumes of Cell TITERGLO® cell viability testing reagent (Promega Cat #G7573) are added to the cells remaining in the plates, and following a fifteen minute incubation with gentle shaking at room temperature luminescence is measured with the Envision multi-label plate reader. Percent cell death is calculated by setting 100% activity (cell death) to zero luminescence units and minimum activity (max number of viable cells) as the average luminescence units of wells containing stimulants alone and no added compound. IC50's are calculated using a standard four parameter fit.

[3] = biological target: human RAR-related orphan receptor beta (hRORb) (Homo sapiens (Human), UniProt Q92753); test: RORb receptor-ligand competition binding assay; conditions: His-tagged hRORb, [3H]-labelled isoxazole benzoic acid ligand
Sequence of human RAR-related orphan receptor beta (hRORb) (Q92753 whole entry, the tested form may be a part): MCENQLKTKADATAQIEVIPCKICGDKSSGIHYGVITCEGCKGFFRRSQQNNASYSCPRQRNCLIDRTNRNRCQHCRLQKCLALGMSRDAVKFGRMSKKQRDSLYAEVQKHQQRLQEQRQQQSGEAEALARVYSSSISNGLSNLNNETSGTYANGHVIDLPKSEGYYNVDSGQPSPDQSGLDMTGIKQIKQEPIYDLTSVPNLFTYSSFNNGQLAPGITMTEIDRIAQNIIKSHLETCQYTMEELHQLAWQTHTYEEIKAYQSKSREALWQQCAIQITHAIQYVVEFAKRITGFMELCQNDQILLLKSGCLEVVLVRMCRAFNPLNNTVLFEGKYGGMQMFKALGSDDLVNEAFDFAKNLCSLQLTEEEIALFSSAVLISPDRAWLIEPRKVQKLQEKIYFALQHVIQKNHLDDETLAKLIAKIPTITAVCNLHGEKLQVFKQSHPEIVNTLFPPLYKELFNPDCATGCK

[4] = biological target: human RORg ligand binding domain fused to yeast GAL4 DNA binding domain (Homo sapiens (Human), UniProt P51449); test: HEK293 RORg GAL4 Receptor-Reporter Assay; type: cell-based; conditions: HEK293 cells, RORg-GAL4/pGL4.31 luciferase reporter, 18 hours; mean ± standard deviation; read-out: hIC50
Sequence of human RORg ligand binding domain fused to yeast GAL4 DNA binding domain (P51449 269-508): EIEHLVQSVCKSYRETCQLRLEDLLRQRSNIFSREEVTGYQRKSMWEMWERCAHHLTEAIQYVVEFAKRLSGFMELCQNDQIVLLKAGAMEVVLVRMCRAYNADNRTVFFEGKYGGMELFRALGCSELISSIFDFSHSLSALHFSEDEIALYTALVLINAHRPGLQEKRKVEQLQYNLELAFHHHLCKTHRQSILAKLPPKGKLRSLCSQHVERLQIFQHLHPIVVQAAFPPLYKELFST
Procedure: As an indicator of inverse agonist activity, an RAR-related orphan receptor gamma (RORg) receptor-reporter assay (RORg-GAL4/pGL4.31) is performed in HEK293 cells. HEK293 cells are co-transfected using Fugene™ reagent. A reporter plasmid containing a GAL4 binding domain and a minimal adenoviral promoter upstream of a firefly luciferase gene is co-transfected with a plasmid constitutively expressing a human RORg ligand binding domain fused to yeast GAL4 DNA binding domain. Cells are transfected in T150 cm^2 flasks in MEM media without FBS. After 18 hours incubation, transfected cells are trypsinized, plated in 96-well microtiter plates in 3:1 DMEM-F12 media containing 10% FBS, incubated for 4 hours and then exposed to various concentrations of test compounds ranging from about 0.05 nM to 10 μM. After 18 hours of incubations with compounds, cells are lysed and luciferase activity is quantified using standard techniques. Data is fit to a 4 parameter-fit logistics to determine IC50 values.

Sequence of human RAR-related orphan receptor alpha (hRORa) (P35398 whole entry): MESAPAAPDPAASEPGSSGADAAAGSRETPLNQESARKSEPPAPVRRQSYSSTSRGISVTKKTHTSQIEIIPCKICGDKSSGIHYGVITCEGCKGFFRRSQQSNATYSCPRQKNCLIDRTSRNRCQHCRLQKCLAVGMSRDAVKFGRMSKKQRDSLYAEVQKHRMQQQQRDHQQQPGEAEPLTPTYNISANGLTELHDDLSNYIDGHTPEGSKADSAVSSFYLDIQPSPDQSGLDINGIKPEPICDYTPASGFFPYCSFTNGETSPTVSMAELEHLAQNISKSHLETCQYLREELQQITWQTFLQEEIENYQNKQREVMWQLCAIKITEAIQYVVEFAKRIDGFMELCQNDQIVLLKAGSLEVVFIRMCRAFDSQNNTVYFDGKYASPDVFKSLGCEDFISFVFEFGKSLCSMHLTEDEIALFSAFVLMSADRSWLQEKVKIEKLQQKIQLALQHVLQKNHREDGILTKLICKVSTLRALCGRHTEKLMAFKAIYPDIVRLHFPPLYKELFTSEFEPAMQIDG

`CCS(=O)(=O)c1ccc(CNC(=O)c2cc3c(s2)C2(CCN(C(C)c4ccc(C#N)cc4)CC2)OC2(CC2)C3)cc1` (single isomer, unassigned; isomer 1) [Example 8, 1′-[1-(4-Cyanophenyl)ethyl]-5,5-spirocyclopropane-N-[(4-ethylsulfonylphenyl)methyl]spiro[4H-thieno[2,3-c]pyran-7,4′-piperidine]-2-carboxamide isomer 1] gave a Ki [1] of over 20400 nM, a Ki [2] of 6 ± 1.81 nM and an EC50 (IL-17 secretion in PBMC) of 10.9 ± 6.44 nM. The EC50 (PBMC) was over 1000 nM, the Ki [3] was over 12500 nM and the IC50 [4] was 34.4 ± 6.01 nM.
`CCS(=O)(=O)c1ccc(CNC(=O)c2cc3c(s2)C2(CCN([C@H](C)c4cnc(C(F)(F)F)nc4)CC2)OC(C)(C)C3)nc1` [Example 5, N-{[5-(Ethylsulfonyl)pyridin-2-yl]methyl}-5′,5′-dimethyl-1-{(1R)-1-[2-(trifluoromethyl)pyrimidin-5-yl]ethyl}-4′,5′-dihydrospiro[piperidine-4,7′-thieno[2,3-c]pyran]-2′-carboxamide] gave a Ki [2] of 6.96 ± 3.89 nM, an EC50 (IL-17 secretion in PBMC) of 11 ± 7.67 nM and an EC50 (PBMC) of over 1000 nM. For the same compound, the Ki [3] was over 12500 nM and the IC50 [4] was 16.7 ± 20.3 nM.
With `CCS(=O)(=O)c1ccc(CNC(=O)c2cc3c(s2)C2(CCN([C@H](C)c4cnc(C(F)(F)F)nc4)CC2)OC2(CC2)C3)nc1` [Example 7, N-{[5-(Ethylsulfonyl)pyridin-2-yl]methyl}-1″-(1R)-1-[2-(trifluoromethyl)pyrimidin-5-yl]ethyl-4′H-dispiro[cyclopropane-1,5′-thieno[2,3-c]pyran-7′,4″-piperidine]-2′-carboxamide] the Ki [2] was 6.4 ± 2.62 nM, the EC50 (IL-17 secretion in PBMC) was 14.6 ± 8.24 nM and the EC50 (PBMC) was over 1000 nM. For the same compound, the Ki [3] was over 12500 nM and the IC50 [4] was 22.3 ± 23.8 nM.
